Measurements from patent US20230338532A1, “IMMUNOSUPPRESSANT DRUG RESISTANT ARMORED TCR T CELLS FOR IMMUNE-THERAPY OF ORGAN TRANSPLANT PATIENTS” (priority 2020, published 2023).

Tests used:
Assay type in all cases: cell-based, human
HepG2.2.15 cells [1] = assay: TNF-α production of TCR T cells after overnight co-culture with HepG2.2.15 cells; conditions: clinically relevant concentration
Description: FIGS. 1A and 1B show functional profiles of 5183-electroporated T cells treated with tacrolimus. Cytokine production (TNF-α as a representative) of drug-treated S183 TCR-T cells was evaluated following overnight co-culture with HepG2.215 cells. FIG. 1A: Concatenated dot plots (left panel) from representative experiments stained for TNF-α production. […] Non-treated electroporated T cells used as negative control. FIG. 1B: Drug effect on T cell cytolysis determined through impedance measurement. The Normalized Cell Index plot was converted to an area under the curve, and quantified to measure the percentage of cytolysis ˜45 hours after S183-TCR T cell addition. […] Statistical significance was evaluated by 2-tailed t test. […]
FIG. 3A: S183 TCR and mutant CnB m-RNA were co-electroporated and T cell function was evaluated following overnight co-culture with HepG2.2.15 cells. FIG. 3B: Viability and TCR expression of engineered T cells evaluated 24 hours post-electroporation. […] FIG. 3C: Frequency of TNF-α-producing CD8+ cells out of total live CD8+ T cells were quantified following overnight incubation with the targets (n=3). […]
FIG. 5A: Sequence information of siRNA specific for FKBP1A. FIG. 5B: Frequency of TNF-α-producing CD8+ cells out of total live CD8+ T cells were quantified following overnight incubation with the targets and different concentrations of Tacrolimus (n=3). […]

T cells = assay: Viability of engineered T cells exposed to immunosuppressants; conditions: clinically relevant concentration, 48 hours exposure
Description: Intracellular cytokine staining and viability analysis were performed at the indicated time after treatment.

HepG2.2.15 cells [2] = assay: T cell cytolysis by impedance measurement (real time killing assay); conditions: clinically relevant doses, FIG. 1B
Description: FIGS. 1A and 1B show functional profiles of 5183-electroporated T cells treated with tacrolimus. Cytokine production (TNF-α as a representative) of drug-treated S183 TCR-T cells was evaluated following overnight co-culture with HepG2.215 cells. FIG. 1A: Concatenated dot plots (left panel) from representative experiments stained for TNF-α production. […] Non-treated electroporated T cells used as negative control. FIG. 1B: Drug effect on T cell cytolysis determined through impedance measurement. The Normalized Cell Index plot was converted to an area under the curve, and quantified to measure the percentage of cytolysis ˜45 hours after S183-TCR T cell addition. Each dot represents one individual experiment in bar graphs. Statistical significance was evaluated by 2-tailed t test. […]
FIGS. 6A, 6B and 6C show dual-resistant TCR-redirected T cells were produced by electroporating 3 mRNAs (HBV TCR, CnB mutant and IMPDH mutant) into the T cells. FIG. 6A: Frequency of TNF-α-producing CD8+ cells out of total live CD8 T cells was quantified following overnight incubation with the targets (n=3). […] FIG. 6B: T cell cytolysis determined by real time killing assay in the presence and absence of both drugs. […] FIG. 6C: Viability of dual resistant TCR-T cells evaluated 72 hours after exposure to clinically relevant concentration of both drugs.

COc1c(C)c2c(c(O)c1C/C=C(\C)CCC(=O)OCCN1CCOCC1)C(=O)OC2 [MMF, Mycophenolate mofetil]
effect on T cell function and killing (HepG2.2.15 cells [1]): does not impair T cell function and killing | effect on viability of modified TCR-T cells (T cells): markedly decreases the viability

C=CC[C@@H]1/C=C(\C)C[C@H](C)C[C@H](OC)[C@H]2O[C@@](O)(C(=O)C(=O)N3CCCC[C@H]3C(=O)O[C@H](/C(C)=C/[C@@H]3CC[C@@H](O)[C@H](OC)C3)[C@H](C)[C@@H](O)CC1=O)[C@H](C)C[C@@H]2OC [Tacrolimus]
loss of cytolytic activity of treated T cells (HepG2.2.15 cells [2]): ≤ 50 % of the non-treated control | effect on T cell TNF-α production (HepG2.2.15 cells [1]; 12 hours incubation with HepG2.2.15 cells): can impair T cell TNF-α production
